For one assay, the target named is Human Cot (Homo sapiens (Human), UniProt P41279). The assay is described as follows: High Throughput Cot Biochemical Assay. To be noted: Cot HTRF (TR-FRET) biochemical assay.
The next assay concerns TNFα. In words: Cot Monocyte TNFα Cell Based Assay.
Where [1] appears, read: read-out: EC50 TNF, LPS-stimulated human monocytes, TNFα.
The mark [2] stands for this setting: Homo sapiens, Monocyte, read-out: EC50 TNF, LPS-stimulated human monocytes, TNFα.

Like-named read-outs stand apart in the source and are kept apart here.

Chain of Human Cot (P41279 30-397): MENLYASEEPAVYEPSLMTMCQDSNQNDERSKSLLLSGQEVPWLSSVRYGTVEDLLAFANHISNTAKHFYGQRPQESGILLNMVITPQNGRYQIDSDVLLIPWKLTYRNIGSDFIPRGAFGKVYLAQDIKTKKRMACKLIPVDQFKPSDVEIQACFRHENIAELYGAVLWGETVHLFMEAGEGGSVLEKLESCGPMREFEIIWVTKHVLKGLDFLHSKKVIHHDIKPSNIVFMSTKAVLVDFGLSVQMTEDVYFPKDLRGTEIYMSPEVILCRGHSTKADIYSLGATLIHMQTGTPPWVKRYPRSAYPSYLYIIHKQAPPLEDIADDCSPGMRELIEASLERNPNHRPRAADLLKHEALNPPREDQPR

Consider `N#Cc1cnc2c(Cl)cc(N[C@@H](c3cocn3)c3cn(C4CCN(C5COC5)CC4)nn3)cc2c1Nc1ccc(Cl)c(Cl)c1F` [Example 242, (S)-8-chloro-4-((3,4-dichloro-2-fluorophenyl)amino)-6-((o)(azol-4-yl(1-(1-(oxetan-3-yl)piperidin-4-yl)-1H-1,2,3-triazol-4-yl)methyl)amino)quinoline-3-carbonitrile], for which the IC50 on Human Cot (read-out: IC50 HTRF) was 143 nM. The concentration giving a half-maximal response (EC50) in the assay with TNFα (setting [1]) worked out at 5800 nM.

On Human Cot (IC50 HTRF), `Cc1ncsc1[C@H](Nc1cc(Cl)c2ncc(C#N)c(N[C@H](C)c3ccccc3)c2c1)c1c[nH]nn1` [Example 243, 8-chloro-6-(((R)-(4-methylthiazol-5-yl)(1H-1,2,3-triazol-4-yl)methyl)amino)-4-(((R)-1-phenylethyl)amino)quinoline-3-carbonitrile] showed a half-maximal inhibitory concentration (IC50) of 41 nM. Also, the half-maximal effective concentration (EC50) with TNFα (setting [2]) stood at 9490 nM.

With `CC(C)n1cc([C@@H](Nc2cc(Cl)c3ncc(C#N)c(Nc4ccc(F)c(Cl)c4)c3c2)C2=CCOCC2)nn1` [Example 244, (S)-8-chloro-4-((3-chloro-4-fluorophenyl)amino)-6-(((3,6-dihydro-2H-pyran-4-yl)(1-isopropyl-1H-1,2,3-triazol-4-yl)methyl)amino)quinoline-3-carbonitrile], the 50% inhibitory concentration (IC50) against Human Cot (IC50 HTRF) was 4 nM. The EC50 in the assay on TNFα (setting [2]) came out at 328 nM.

With `Cc1ncccc1[C@H](Nc1cc(Cl)c2ncc(C#N)c(Nc3cccc(Cl)c3F)c2c1)c1cn(C(C)C)nn1` [Example 245, (S)-8-chloro-4-((3-chloro-2-fluorophenyl)amino)-6-(((1-isopropyl-1H-1,2,3-triazol-4-yl)(2-methylpyridin-3-yl)methyl)amino)quinoline-3-carbonitrile], on Human Cot (IC50 HTRF), it took 2 nM to reach half-maximal inhibition (IC50). The EC50 in the assay with TNFα (setting [2]) was 125 nM.

On Human Cot (IC50 HTRF), `N#Cc1cnc2c(Cl)cc(N[C@H](c3c[nH]nn3)c3csc4c3CCN(C3COC3)C4)cc2c1Nc1cccc(Cl)c1F` [Example 246, (S)-8-chloro-4-((3-chloro-2-fluorophenyl)amino)-6-(((6-(oxetan-3-yl)-4,5,6,7-tetrahydrothieno[2,3-c]pyridin-3-yl)(1H-1,2,3-triazol-4-yl)methyl)amino)quinoline-3-carbonitrile] returned an IC50 of 6 nM. The concentration giving a half-maximal response (EC50) in the assay with TNFα (setting [2]) amounted to 652 nM.

As for `Cc1ncccc1[C@H](Nc1cc(Cl)c2ncc(C#N)c(Nc3cccc(Cl)c3F)c2c1)c1cn(C2CCN(C(C)(C)C)CC2)nn1` [Example 247, (S)-6-(((1-(1-(tert-butyl)piperidin-4-yl)-1H-1,2,3-triazol-4-yl)(2-methylpyridin-3-yl)methyl)amino)-8-chloro-4-((3-chloro-2-fluorophenyl)amino)quinoline-3-carbonitrile], at Human Cot (read-out: IC50 HTRF), the 50% inhibitory concentration (IC50) is 2 nM. The EC50 with TNFα (setting [2]) is 102 nM.

Regarding `Cc1ncccc1[C@H](Nc1cc(Cl)c2ncc(C#N)c(Nc3cccc(Cl)c3F)c2c1)c1c[nH]nn1` [Example 248, (S)-8-chloro-4-((3-chloro-2-fluorophenyl)amino)-6-(((2-methylpyridin-3-yl)(1H-1,2,3-triazol-4-yl)methyl)amino)-quinoline-3-carbonitrile], the IC50 against Human Cot (IC50 HTRF) was found to be 4 nM. The EC50 with TNFα (setting [2]) amounted to 398 nM.

With `Cc1cncc([C@H](Nc2cc(Cl)c3ncc(C#N)c(Nc4ccc(F)c(Cl)c4)c3c2)c2cn(C3CCN(C(C)(C)C)CC3)nn2)c1` [Example 250, (S)-6-(((1-(1-(tert-butyl)piperidin-4-yl)-1H-1,2,3-triazol-4-yl)(5-methylpyridin-3-yl)methyl)amino)-8-chloro-4-((3-chloro-4-fluorophenyl)amino)quinoline-3-carbonitrile], the IC50 against Human Cot (IC50 HTRF) is 5 nM. The EC50 with TNFα (setting [2]) came to 127 nM.

For the compound `Cc1ncsc1[C@H](Nc1cc(Cl)c2ncc(C#N)c(Nc3cccc(Cl)c3F)c2c1)c1c[nH]nn1` [Example 251, (R)-8-chloro-4-((3-chloro-2-fluorophenyl)amino)-6-(((4-methylthiazol-5-yl)(1H-1,2,3-triazol-4-yl)methyl)amino)quinoline-3-carbonitrile], half-maximal inhibition at Human Cot (IC50 HTRF) (IC50) required 5 nM. In addition, the concentration for a half-maximal effect (EC50) in the assay on TNFα (setting [2]) was 347 nM.

Turning to `Cc1ncsc1[C@H](Nc1cc(Cl)c2ncc(C#N)c(Nc3cccc(Cl)c3F)c2c1)c1cn(C(C)C)nn1` [Example 252, (R)-8-chloro-4-((3-chloro-2-fluorophenyl)amino)-6-(((1-isopropyl-1H-1,2,3-triazol-4-yl)(4-methylthiazol-5-yl)methyl)-amino)quinoline-3-carbonitrile], the half-inhibitory concentration (IC50) at Human Cot (IC50 HTRF) was determined as 6 nM. Besides, the EC50 in the assay on TNFα (setting [2]) came out at 119 nM.

In turn, `Cc1ncsc1[C@H](Nc1cc(Cl)c2ncc(C#N)c(Nc3cccc(Cl)c3F)c2c1)c1cn(C2CCN(C(C)(C)C)CC2)nn1` [Example 253, (R)-6-(((1-(1-(tert-butyl)piperidin-4-yl)-1H-1,2,3-triazol-4-yl)(4-methylthiazol-5-yl)methyl)amino)-8-chloro-4-((3-chloro-2-fluorophenyl)amino)quinoline-3-carbonitrile] returned an IC50 against Human Cot (IC50 HTRF) of 4 nM. Moreover, in the assay on TNFα (setting [2]), the EC50 came to 66 nM.

As for `CC[C@@H](Nc1c(C#N)cnc2c(Cl)cc(N[C@@H](c3cccnc3)c3c[nH]nn3)cc12)c1ccccc1` [Example 254, 8-chloro-4-(((R)-1-phenylpropyl)amino)-6-(((S)-pyridin-3-yl(1H-1,2,3-triazol-4-yl)methyl)amino)quinoline-3-carbonitrile], half-maximal inhibition at Human Cot (IC50 HTRF) (IC50) required 3 nM. Further, in the assay on TNFα (setting [2]), the concentration giving a half-maximal response (EC50) worked out at 230 nM.

`C[C@@H](Nc1c(C#N)cnc2c(Cl)cc(N[C@@H](c3cccnc3)c3c[nH]nn3)cc12)c1ccccc1` [Example 255, 8-chloro-4-(((R)-1-phenylethyl)amino)-6-(((S)-pyridin-3-yl(1H-1,2,3-triazol-4-yl)methyl)amino)quinoline-3-carbonitrile] gave an IC50 at Human Cot (IC50 HTRF) of 10 nM. For the same compound, the EC50 with TNFα (setting [2]) stood at 766 nM.

Consider `N#Cc1cnc2c(Cl)cc(N[C@@H](c3cccnc3)c3c[nH]nn3)cc2c1Nc1ccc(Cl)c(Cl)c1F` [Example 256, (S)-8-chloro-4-((3,4-dichloro-2-fluorophenyl)amino)-6-((pyridin-3-yl(1H-1,2,3-triazol-4-yl)methyl)-amino)quinoline-3-carbonitrile], for which 16 nM corresponded to half-maximal inhibition on Human Cot (IC50 HTRF) (IC50). Besides, the EC50 with TNFα (setting [2]) came out at 341 nM.

`N#Cc1cnc2c(Cl)cc(N[C@@H](c3cccnc3)c3c[nH]nn3)cc2c1Nc1cccc(Cl)c1F` [Example 257, (S)-8-chloro-4-((3-chloro-2-fluorophenyl)amino)-6-((pyridin-3-yl(1H-1,2,3-triazol-4-yl)methyl)-amino)quinoline-3-carbonitrile] yielded an IC50 at Human Cot (IC50 HTRF) of 6 nM. In addition, the EC50 in the assay with TNFα (setting [2]) worked out at 212 nM.

As for `CC[C@@H](Nc1c(C#N)cnc2c(Cl)cc(N[C@@H](c3cccnc3)c3cn(C4CCN(C(C)(C)C)CC4)nn3)cc12)c1ccccc1` [Example 258], the IC50 on Human Cot (read-out: IC50 HTRF) was determined as 2 nM. In the assay on TNFα (setting [1]), the EC50 stood at 33 nM.

Turning to `C[C@@H](Nc1c(C#N)cnc2c(Cl)cc(N[C@@H](c3cccnc3)c3cn(C4CCN(C(C)(C)C)CC4)nn3)cc12)c1ccccc1` [Example 259, 6-(((S)-(1-(1-(tert-butyl)piperidin-4-yl)-1H-1,2,3-triazol-4-yl)(pyridin-3-yl)methyl)amino)-8-chloro-4-(((R)-1-phenylethyl)amino)quinoline-3-carbonitrile], inhibition on Human Cot (IC50 HTRF) was half-maximal at 6 nM (IC50). For the same compound, in the assay on TNFα (setting [2]), the concentration giving a half-maximal response (EC50) is 158 nM.

Take `CC(C)(C)N1CCC(n2cc([C@@H](Nc3cc(Cl)c4ncc(C#N)c(Nc5ccc(Cl)c(Cl)c5F)c4c3)c3cccnc3)nn2)CC1` [Example 260, (S)-6-(((1-(1-(tert-butyl)piperidin-4-yl)-1H-1,2,3-triazol-4-yl)(pyridin-3-yl)methyl)amino)-8-chloro-4-((3,4-dichloro-2-fluorophenyl)amino)-quinoline-3-carbonitrile]: on Human Cot (IC50 HTRF), it took 6 nM to reach half-maximal inhibition (IC50). In addition, in the assay with TNFα (setting [2]), the EC50 came to 126 nM.

At Human Cot (IC50 HTRF), `Cc1nc([C@H](Nc2cc(Cl)c3ncc(C#N)c(Nc4ccc(F)c(Cl)c4)c3c2)c2cn(C3CCN(C(C)(C)C)CC3)nn2)c(C)o1` [Example 262, (S)-6-(((1-(1-(tert-butyl)piperidin-4-yl)-1H-1,2,3-triazol-4-yl)(2,5-dimethyloxazol-4-yl)methyl)amino)-8-chloro-4-((3-chloro-4-fluorophenyl)amino)quinoline-3-carbonitrile] came in with a concentration for half-maximal inhibition (IC50) of 11 nM. Besides, in the assay with TNFα (setting [2]), the EC50 was found to be 130 nM.

At Human Cot (IC50 HTRF), `CC(C)(C)N1CCC(n2cc([C@@H](Nc3cc(Cl)c4ncc(C#N)c(Nc5ccc(F)c(Cl)c5)c4c3)C3=CCOCC3)nn2)CC1` [Example 264, (S)-6-(((1-(1-(tert-butyl)piperidin-4-yl)-1H-1,2,3-triazol-4-yl)(3,6-dihydro-2H-pyran-4-yl)methyl)amino)-8-chloro-4-((3-chloro-4-fluorophenyl)-amino)quinoline-3-carbonitrile] registered a 50% inhibitory concentration (IC50) of 2 nM. Besides, in the assay with TNFα (setting [2]), the EC50 was 70 nM.

As to `Cn1cnc([C@H](Nc2cc(Cl)c3ncc(C#N)c(Nc4ccc(F)c(Cl)c4)c3c2)c2cn(C3CCN(C(C)(C)C)CC3)nn2)c1` [Example 267, (S)-6-(((1-(1-(tert-butyl)piperidin-4-yl)-1H-1,2,3-triazol-4-yl)(1-methyl-1H-imidazol-4-yl)methyl)amino)-8-chloro-4-((3-chloro-4-fluorophenyl)-amino)quinoline-3-carbonitrile], half-maximal inhibition against Human Cot (IC50 HTRF) (IC50) was put at 30 nM. Further, the EC50 in the assay on TNFα (setting [2]) is 5120 nM.

On to `Cc1ccc([C@H](Nc2cc(Cl)c3ncc(C#N)c(Nc4ccc(F)c(Cl)c4)c3c2)c2c[nH]nn2)cn1` [Example 271, (S)-8-chloro-4-((3-chloro-4-fluorophenyl)amino)-6-(((6-methylpyridin-3-yl)(1H-1,2,3-triazol-4-yl)methyl)amino)quinoline-3-carbonitrile], for which the IC50 against Human Cot (IC50 HTRF) was determined as 9 nM. In addition, the EC50 with TNFα (setting [2]) stood at 826 nM.

Compound `Cc1ccc([C@H](Nc2cc(Cl)c3ncc(C#N)c(Nc4ccc(F)c(Cl)c4)c3c2)c2cn(COC(=O)C(C)(C)C)nn2)cn1` [Example 273, (S)-(4-(((8-chloro-4-((3-chloro-4-fluorophenyl)amino)-3-cyanoquinolin-6-yl)amino)(6-methylpyridin-3-yl)methyl)-1H-1,2,3-triazol-1-yl)methyl pivalate] registered an IC50 at Human Cot (IC50 HTRF) of 51 nM. Also, in the assay with TNFα (setting [2]), the EC50 is 1560 nM.

A word on the IC50: it is the concentration needed to halve the response being measured. As a reminder, the EC50 is the concentration giving half of the maximal effect.

Source of the values: US11066414B2, “Cot modulators and methods of use thereof” (Gilead Sciences, Inc., priority 2015, dated 2021).
